Earlier results as cited in patent US10940128B2, “Injectable melphalan compositions comprising a cyclodextrin derivative and methods of making and using the same” (CYDEX PHARMACEUTICALS, INC., priority 2009, dated 2021).
Like-named read-outs stand apart in the source and are kept apart here.

Tests used:
plasma proteins = conditions: cited from earlier work
[1] = water (pH 7); cited from earlier work
[2] = cited from earlier work; for Mean (±SD) peak melphalan plasma concentrations: myeloma patients; for clearance of melphalan: repeat dosing of 0.5 mg/kg every 6 weeks
[3] = patients who have received intravenous melphalan; cited from earlier work
certain animal tumors = conditions: in vivo; cited from earlier work

SMILES | extent of melphalan binding to plasma proteins (plasma proteins) | drug (covalently) irreversibly bound to plasma proteins (plasma proteins; plasma) | share of the plasma protein binding accounted for by α1-acid glycoprotein (plasma proteins; plasma) | solubility in water [1] | steady-state volume of distribution ([2]; after intravenous administration of 50 mg of melphalan) | Mean (±SD) peak melphalan plasma concentrations ([2]; 10 mg/m^2 dose) | Mean (±SD) peak melphalan plasma concentrations ([2]; 20 mg/m^2 dose) | clearance of melphalan ([2]; after the first course) | clearance of melphalan ([2]; after the third course) | hypersensitivity reactions, including anaphylaxis, share of patients [3] | activity against certain animal tumors compared with melphalan (certain animal tumors)
N[C@@H](Cc1ccc(N(CCCl)CCCl)cc1)C(=O)O [melphalan, 4-[bis(chloroethyl)amino]phenylalanine] | 60% to 90 | Approximately 30% | about 20% | practically insoluble | 0.5 L/kg | 1.2 ± 0.4 µg/mL | 2.8 ± 1.9 µg/mL | 8.1 mL/min/kg | 5.5 mL/min/kg | approximately 2% | 
N[C@H](Cc1ccc(N(CCCl)CCCl)cc1)C(=O)O [medphalan] |  |  |  |  |  |  |  |  |  |  | less active
